Experimental data reported in patent US11091429B2, “Organic compounds” (Givaudan SA, priority 2012, dated 2021).
“Also recorded” adds a separate entry of the source.

How the values were obtained:
[1] = Tasting in low fat mayonnaise
Method: The following formulations were prepared and tasted by trained panelists.
Low fat Mayonnaise (27% Fat, 9% carbohydrates (of which 5% sugar), 1.4% salt)
(§1) Samples were prepared and evaluated by expert tasters. Tasters were asked to describe the samples focusing on authentic taste, mouthfeel, fullness, salty-ness, salivation, umami, sweetness, juiciness, richness, long lastingness and fattiness.
Calve 60% Reduced Fat Mayonnaise
Base is Calve Mayonnaise 60% reduced fat (market Product)
Samples were prepared and evaluated by expert tasters. Tasters were asked to describe the samples focusing on authentic taste, mouthfeel, fullness, salivation, salty-ness, umami, sweetness, juiciness, richness, long lastingness and fattiness.
Low fat Mayonnaise (27% Fat)

[2] = Tasting in UHT milk, cream flavoured; conditions: 2 ppm, cream flavour 0.03%
Method: The following tests were carried out on dairy products processed by fermentation, pasteurization or UHT. The products contain fat, protein and calcium.
UHT Milk Cream Flavoured, Non Sweetened and Different Fat Levels
In a UHT milk containing 0%, 1.5% and 3% fat, flavoured with a proprietary cream flavour closed at 0.03% C18:2 gaba was added at 2 ppm.
Samples were evaluated by expert tasters.
Tasters were asked to describe the samples focusing on authentic taste, mouthfeel, fullness, salivation, sweetness, juiciness, richness, long lastingness and fattiness. The results are presented below:—

[3] = Tasting in strawberry flavoured sugar sweetened yoghurt; conditions: 2 ppm, 1.5% fat yoghurt, 8% sucrose, strawberry flavour 0.015%
[4] = Test on Tang; conditions: 0.5 ppm, orange flavoured Tang
Method: In an orange flavoured Tang powdered soft drink (market product) sweetened with sucrose plus high intensity sweetener and containing citric acid, C18:2-gaba and C18:2-pro were tested.
All samples were evaluated by expert tasters. Tasters were asked to describe the samples focusing on authentic taste, mouthfeel & body, enhancement, richness, juiciness, long lastingness, salivation, sweetness, masking off notes of high intensity sweetener
Base is Orange Flavoured Tang

[5] = Tasting in mango still beverage, 4% clear mango juice; conditions: 1 ppm; 4% clear mango juice (30% reduced juice)
Method: (§2) Mango Flavoured Still Beverage Containing Different Levels of Juice,
(§3) In a Mango flavoured still beverage, sweetened with 8% sucrose and containing 0.1% citric acid and 1%, 4% and 6% clear mango juice flavoured with a proprietary Mango flavour @ 0.05%, C18:2-gaba and C18:2-Pro were added, as such (separate) and in combination.
(§4) All samples were evaluated by expert tasters. Tasters were asked to describe the samples focusing on authentic taste, juicy mouthfeel, enhancement, richness, juiciness, long lastingness, salivation, sweetness.
In a Mango flavoured still beverage, sweetened with 8% sucrose & containing 0.1% citric acid and 4% clear mango juice flavoured with Mango flavour @ 0.05%, C18:2-gaba and C18:2-Pro were added, as such (separate) and in combination.
Base is water, 8% sucrose, 0.1% citric acid, 4% clear mango juice (30% reduced juice), flavoured with Mango flavor, dosed at 0.05%

[6] = Tasting in mango still beverage, 6% clear mango juice; conditions: 1 ppm; 6% clear mango juice (full juice)
Method: as §2, §3, §4
In a Mango-flavoured still beverage, sweetened with 8% sucrose & containing 0.1% citric acid and 6% clear mango juice flavoured with Mango flavour@0.05%, C18:2-gaba and C18:2-Pro were added, as such (separate) and in combination.
Base is water, 8% sucrose, 0.1% citric acid, 6% clear mango juice (full juice), flavoured with Mango flavor, dosed at 0.05%.

[7] = Test on Breezer Orange; conditions: 0.5 ppm, 4% alcohol
Method: Samples were evaluated by expert tasters. Tasters were asked to describe the samples focusing on authentic taste, alcohol impact, juiciness, mouthfeel, fullness, salivation, sweetness, bitterness, richness, long lastingness and fattiness.

[8] = Test on menthol fondant; conditions: 2 ppm; fondant 65%, sugar syrup 34%, menthol flavour 1%
Method: as §1
Test on Menthol Fondant (1%1
Base is Fondant 65%, sugar syrup 34% and a proprietary menthol flavour at 1%

[9] = Tasting in strawberry drink; conditions: 2 ppm; 7% sucrose, 0.1% citric acid, strawberry flavour 0.015%
In short: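 Expert tasters profiled samples for authentic taste, mouthfeel, fullness, saltiness, salivation, umami, sweetness, juiciness, richness, long-lastingness and fattiness. Base: water with 7% sucrose, 0.1% citric acid and a proprietary strawberry flavour at 0.015%.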

[10] = Tasting in vanilla milk 0.15% fat; conditions: 2 ppm, 4% sucrose, Vaniline 10 ppm + vanilla extract 0.03%
In short: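 Expert panel tasted samples in 0.15% fat milk sweetened with 4% sucrose and flavoured with vaniline at 10 ppm plus vanilla extract at 0.03%. Descriptors covered authentic taste, mouthfeel, fullness, saltiness, salivation, umami, sweetness, juiciness, richness, long-lastingness and fattiness.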

[11] = Test in peach flavoured drink; conditions: 1 ppm; water, 8% sugar, 0.1% citric acid, peach flavour 0.05%
Method: as §1
Test in Peach Flavoured Drink:
Base is water, 8% sugar, 0.1% citric acid, and proprietary peach flavour at 0.05%
(§5) Samples were evaluated by expert tasters. Tasters were asked to describe the samples focusing on authentic taste, mouthfeel, fullness, salty-ness, salivation, umami, sweetness, juiciness, richness, long lastingness and fattiness.
Comparison in a Peach Drink
Base is water, 8% sugar, 0.1% citric acid, proprietary peach flavour at 0.05%
Samples were evaluated by expert tasters. Tasters were asked to describe the samples focusing on authentic taste, mouthfeel, fullness, salivation, salty-ness, umami, sweetness, juiciness, richness, long lastingness and fattiness.

[12] = Test in pineapple flavoured drink; conditions: 1 ppm; water, 8% sugar, 0.1% citric acid, pineapple flavour 0.03%
Method: as §1
Test in Pineapple Flavoured Drink:
Base is water, 8% sugar, 0.1% citric acid and proprietary pineapple flavour at 0.03%
as §5

With `CCCCC/C=C\C/C=C\CCCCCCCC(=O)NCCCC(=O)O` [C18:2-gaba] the tasting result ([1]; 0.5 ppm in Calve Mayonnaise 60% reduced fat) was “full, rich, creamy, more egg yolk taste”, the tasting result ([1]; 0.5 ppm in low fat mayonnaise (27% fat)) was “creamy, thick mouthfeel with a full fat impression” and the tasting result ([2]; UHT milk 0% fat) was “Very creamy, milky, long lasting”. For the same compound, the tasting result ([2]; UHT milk 1.5% fat) was “very creamy, milky, long lasting, salivating”, the tasting result ([2]; UHT milk 3.0% fat) was “very creamy, milky, long lasting, taste like whipped cream” and the tasting result [3] was “very creamy and fresh strawberry; also recorded: creamy, fruity authentic strawberry, stronger strawberry, ripe, long lasting, juicy”. For the same compound, the tasting result [4] was “enhances sweet juicy orange notes, enhanced mouthfeel; also recorded: the off-notes of the high intensity sweetener were suppressed”, the tasting result [5] was “fatty skin-like, very juicy, authentic mango, long lasting mango taste, more mouthfeel than the full juice product” and the tasting result [6] was “fatty skin-like, very thick juicy, authentic mango, long lasting mango taste, rich”. For the same compound, the tasting result [7] was “more alcoholic, sweeter, more juicy orange, less soapy”, the tasting result [8] was “increased menthol impact, stronger cooling more sweet, long lasting, fresh” and the tasting result [9] was “fatty mouthfeel, creamy strawberry, fruity and juicy”. The tasting result [10] was “fatty, long lasting authentic vanilla, vanilla bean taste is enhanced”, the tasting result [11] was “fruity peach, long lasting, juicy and fatty skin like very authentic” and the tasting result [12] was “very ripe, jammy, long lasting and sweet”.
